Assay results published in publication PMC8849047, “Salicylate metal-binding isosteres as fragments for metalloenzyme inhibition” (Chemical Science, 2022).

Columns and labels:
[1] = log P by potentiometric titration octanol/water (Sirius T3); log D7.4 calculated from pKa and log P; assay type: physicochemical; conditions: for logD: pH 7.4
Procedure: In addition to gaining an understanding about the metal coordinating properties of the salicylate MBIs by using [(Tp^Ph,Me)Zn(MBI)] model complexes, the physicochemical properties of the MBIs were also studied. The acidity (pKa) and lipophilicity (log P) were measured using potentiometric methods and the lipophilicity at physiological pH (log D7.4) was calculated from these two values (Table 1).[23–25]
(§1) Physicochemical properties were determined using a Sirius T3 instrument.[23–25] […] The pKa of a compound was determined by analysing each MBI sample in triplicate using potentiometric titrations. Experiments were typically performed over a pH range of 2.0–12.0. Standard deviations were derived from fitting all three replicate experiments. For water insoluble compounds methanol was added and the obtained apparent pKa (psKa) was extrapolated to the aqueous pKa by the Yasuda–Shedlovsky procedure. log P was determined via potentiometric titrations in the presence of varying ratios of octanol and water. The presence of octanol shifts the pKa of ionizable species, and based on the shifts, a log P can be determined. Measurements for log P determination were typically performed over a pH range of 2.0–12.0. Three experiments with varying ratios of water:octanol was performed, allowing for a standard deviation to be determined from the fitting of all measurements. MBI sample sizes were ∼0.5 mg for both pKa and log P measurements.

[2] = target: T1, Recombinant human glyoxalase I (GLO1) (Homo sapiens, UniProt Q04760); test: GLO1 enzyme inhibition assay (absorbance at 240 nm); assay type: biochemical; conditions: for inhibition at 100 µM: standard deviation in parentheses, read-out: %inhib GLO1; for IC50: dose-response curves, read-out: IC50 against GLO1
T1 construct: purchased R&D Systems 4959-GL
T1 sequence (Q04760 2-184 limits assumed): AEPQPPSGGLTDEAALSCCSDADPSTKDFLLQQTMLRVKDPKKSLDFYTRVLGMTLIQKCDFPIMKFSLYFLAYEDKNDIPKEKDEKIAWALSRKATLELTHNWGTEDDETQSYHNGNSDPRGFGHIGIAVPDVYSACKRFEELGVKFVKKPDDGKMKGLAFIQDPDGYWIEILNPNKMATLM
Procedure: To evaluate if the salicylate MBIs could serve as starting points for future FBDD campaigns, the MBI library was screened for inhibitory activity against human glyoxalase I (GLO1) at fragment concentrations of 100 μM (Table 2). […] Recombinant human glyoxalase I (GLO1) was purchased from R&D Systems (catalog #4959-GL). Assays were carried out in 0.1 M sodium phosphate, pH 7.0 buffer, utilizing 96-well clear UV plates (Corning UV Transparent Microplates, catalog #3635). A fresh solution of GSH (100 mM) and methylglyoxal (MG) (100 mM) was prepared in Millipore grade water. […] The substrate mixture was vortexed vigorously for 45 s and then allowed to sit at room temperature for 15 min. The initial well volume was 50 μL containing GLO1 (40 ng) and inhibitor. This protein and inhibitor mixture was incubated for 15–20 min prior to addition of the substrate. […] The enzyme activity was measured utilizing a Biotek Synergy HT or H4 plate reader by measuring absorbance at 240 nm every 1 min for a duration of 8 min. The rate of absorbance increase was compared for samples versus controls containing no inhibitor (set at 100% activity). The absorbance reading for background wells containing DMSO, buffer, and substrate (no enzyme or inhibitor) was subtracted from the experimental wells. […] Dose-response curves were generated, analysed and fitted to obtain IC50 values (see ESI ^†).
5. Single Point screening
Single point screening of salicylate MBI library against GLO1 at 100 µM inhibitor concentration. Chugai 1 (4,6-diphenyl-N-hydroxypyridone) 4 as positive control. […]
6. Dose-response curves against GLO1
The raw data from the GLO1 assay was background corrected and normalized from 0 to 100 with 100 being the largest mean of each dataset. A variable slope log-logistic model was chosen for curve fitting.
The corresponding datapoints are shown as empty bullets and were not included in the curve-fitting. The resulting restricted datasets were fitted according to a literature procedure setting the lower limit of the dose-response curve to zero. This compensates for the loss of information caused by trimming of the dataset. 5,6
Figure S7. Dose-response curve of 11 against GLO1.

[3] = pKa by potentiometric titration (Sirius T3); assay type: physicochemical
Procedure: In addition to gaining an understanding about the metal coordinating properties of the salicylate MBIs by using [(Tp^Ph,Me)Zn(MBI)] model complexes, the physicochemical properties of the MBIs were also studied.
as §1

[4] = system: influenza H1N1 N-terminal PA endonuclease (PAN); test: PAN endonuclease inhibition assay (fluorescent ssDNA-oligo substrate); assay type: biochemical; conditions: 100 μM; standard deviation in parentheses
[5] = target: T2, Human recombinant MMP-3 catalytic domain (Homo sapiens, UniProt P08254); test: MMP-3 enzyme inhibition assay (chromogenic substrate, 412 nm); assay type: biochemical; conditions: standard deviation in parentheses, read-out: %inhib MMP-3
T2 construct: Human recombinant MMP-3 catalytic domain was purchased; purchased ENZO Life Sciences BML-SE109-9090
T2 sequence (P08254 100-272 limits assumed): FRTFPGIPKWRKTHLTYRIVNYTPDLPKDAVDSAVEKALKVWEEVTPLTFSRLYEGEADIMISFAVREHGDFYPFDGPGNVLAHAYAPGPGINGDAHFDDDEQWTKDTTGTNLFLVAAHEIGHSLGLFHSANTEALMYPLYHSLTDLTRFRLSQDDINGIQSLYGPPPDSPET
Procedure: To probe the selectivity of the salicylate MBIs, the library was screened against matrix metalloproteinase-3 (MMP-3) at fragment concentrations of 100 μM (Table 2).
Human recombinant MMP-3 catalytic domain was purchased from ENZO Life Sciences (catalog # BML-SE109-9090). Assays were carried out in clear Costar 96-well, half-area, flat-bottom assay plates (catalog # 80-2404). Each well contained a total volume of 100 μL including buffer (50 mM MES, 10 mM CaCl2, 0.05% Brij-35, 1 mM DNTB, pH 6.0), MMP-3 (2 U), and the fragment solution. After a 30 min incubation period at 37 °C, the reaction was initiated by the addition of 10 μL of chromogenic MMP-3 substrate (100 μM final concentration, Ac-Pro-Leu-Gly-[2-mercap-to-4-methyl-pentanoyl]-Leu-Gly-OC2H5, ENZO Life Sciences, catalog #BML-P125-0005). Absorbance was monitored at 412 nm using a Bio-Tek ELx 808 colorimetric plate reader, and measurements were recorded every minute for 10 min. The rate of absorbance increase was compared for samples versus negative controls (no inhibitor, arbitrarily set as 100% activity).
5. Single Point screening […]
Figure S5. Single point screening of salicylate MBI library against MMP-3 at 100 µM inhibitor
concentration. NNGH as positive control.

Compound | logP [1] | logD [1] | inhibition at 100 µM [2] | pKa ([3]; pKa (pKa,1)) | %inhib Endo (PAN) [4] | inhibition at 100 µM [5] | GLO1 inhibition by positive control ([2]; 50 μM) | IC50 [2] | pKa ([3]; pKa)
COC(=O)c1cccc2oc(=O)[nH]c12 [Compound 13] | 1.24 | 1.22 | 31% | 8.78 | 46 (7) % | 0% | – | – | –
OC1(c2cccc3nc[nH]c23)COC1 [Compound 23] | – | – | 10% | – | 22 (8) % | 4% | – | – | –
O=c1cc(-c2ccccc2)cc(-c2ccccc2)n1O [1-hydroxy-4,6-diphenylpyridin-2(1H)-one, reference compound] | – | – | – | – | – | – | complete inhibition | – | –
CS(=O)(=O)Nc1ccccc1-c1ncccn1 [Compound 25] | – | – | 19% | – | 21 (8) % | 0% | – | – | –
Oc1ccc(-c2cccc(Cl)c2)cc1-c1nc2ccccc2s1 [Compound 11c] | – | – | – | – | – | – | – | 3.3 ± 0.7 µM | –
Oc1ccc(-c2ccccc2)cc1-c1nc2ccccc2s1 [Compound 11a] | – | – | – | – | – | – | – | 5 ± 1.5 µM | –
COC(=O)c1ccccc1O [Compound 6] | 2.19 | 2.19 | 10% | 9.8 | 21 (6) % | 0% | – | – | –
COC(=O)c1cccc2nc[nH]c12 [Compound 14] | 1.73 | 1.73 | 19% | 4.51 | 37 (5) % | 7% | – | – | 12.3
Oc1ccc(-c2ccoc2)cc1-c1nc2ccccc2s1 [Compound 11g] | – | – | – | – | – | – | – | 6.9 ± 2.8 µM | –
Oc1ccc(N2CCOCC2)cc1-c1nc2ccccc2s1 [Compound 11e] | – | – | – | – | – | – | – | > 50 µM | –
O=C(O)c1cccc2nn[nH]c12 [Compound 5] | 1.38 | -2.37 | 20% | 3.49 | 22 (7) % | 0% | – | – | 9.29
CS(=O)(=O)Nc1ccccc1C(=O)O [Compound 2] | 1.39 | -2.97 | 18% | 3.04 | 1 (9) % | 11% | – | – | 10.8
O=c1[nH]c2c(-c3nnn[nH]3)cccc2o1 [Compound 21] | – | – | 39% | – | 0% | 0% | – | – | –
Oc1ccccc1C1(O)COC1 [Compound 9] | 0.43 | 0.42 | 9% | 9.38 | 17 (9) % | 0% | – | – | –
Oc1ccccc1-c1nnn[nH]1 [Compound 8] | 1.54 | -0.46 | 24% | 4.63 | – | 6% | – | – | 10.9
Cc1cccc(-c2ccc(O)c(-c3nc4ccccc4s3)c2)c1 [Compound 11b] | – | – | – | – | – | – | – | 6.8 ± 1.4 µM | –
